# Experimental data from US6541463B1, “Inhibitors of type 5 and type 3 17β-hydroxysteroid dehydrogenase and methods for their use” (Endorecherche, Inc., priority 1998, dated 2003).
# Several values for one entry are separate records, joined by “and”; a condition that tells them apart may be missing. Equal values may be shown once.
# Biological target: T1, human type 5 17β-hydroxysteroid dehydrogenase (Homo sapiens, UniProt P42330)
# T1 construct: screen again a human placental λgt11 cDNA to get the full length cDNA clone; expressed in transfected cells; host or cells: human embryonal kidney 293 cells (pCMV / pCMV-neo vector)
# T1 sequence (P42330 1-323): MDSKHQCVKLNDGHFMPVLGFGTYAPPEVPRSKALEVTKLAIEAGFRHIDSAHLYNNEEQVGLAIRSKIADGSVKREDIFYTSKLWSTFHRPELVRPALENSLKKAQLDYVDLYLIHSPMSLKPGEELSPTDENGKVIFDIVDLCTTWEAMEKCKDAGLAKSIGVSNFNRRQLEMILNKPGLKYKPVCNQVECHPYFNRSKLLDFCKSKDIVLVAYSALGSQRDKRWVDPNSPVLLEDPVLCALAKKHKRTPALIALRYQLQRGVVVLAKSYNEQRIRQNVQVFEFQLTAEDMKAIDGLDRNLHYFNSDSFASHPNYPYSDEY
# Assay: Inhibition of human type 5 17β-HSD activity in transfected 293 cells
# Assay type: cell-based
# Design: Inhibition Type V 17B-HSD % Inh. At 3 · 10^−7 (second value in parentheses): concentration or dose not given beside the values
# Conditions: Table 4′; read-out: Inhibition Type V 17β-HSD IC50
# Procedure: The manner in which IC50 was determined is described in “Efficacy of the Preferred Inhibitors”. Lower numbers for IC50 are desirable.
# Using a oligoprimer pair (5′-GGA-AAT-CGT-GAC-AGG-GAA-TGG-ATT-CCA-AAC-AG-3′, 5′-GGA-ATT-CTT-TAT-TGT-ATT-TCT-GGC-CTA-TGG-AGT-GAG-3′) derived from human aldoketoreductase (Qin et al., J. Steroid Biochem. Molec. Biol. 46: 673-679, 1993) and polymerase chain reaction (PCR), we have amplified from a human placental λgt11 cDNA library (Clontech Laboratories Inc., Palo Alto, Calif.) a cDNA fragment that was used as probe to screen again a human placental λgt11 cDNA to get the full length cDNA clone. The amplified cDNA fragment was purified on agarose gel and labeled with [α^32P]dCTP (Amersham Corp.) using the random primer labeling kit from Pharmacia Inc. PCR amplification reaction medium contained 50 mM KCl, 10 mM Tris-HCl, pH 8.3, 0.1% gelatin, 1 mM MgCl2, 250 μM dNTP, 0.25 μM oligonucleotide primers, and 200 ng of DNA prepared from human placental λgt11 cDNA library. The aqueous phase was overlaid with 75 μL of mineral oil to avoid evaporation. The mixture was heated at 98° C. for 5 min, following the temperature reduction to 72° C., 1 unit of Taq DNA polymerase was added. Using a DNA Thermal Cycler (Perkin-Elmer Corp.), 30 cycles of amplification were carried out using a step program (94° C., 1 min; 60° C., 1 min; and 72° C., 1 min)/cycle.
# Approximately 5×10^5 recombinant phage plaques were screened with 1.5×10^6 cpm/ml of the probe. Prehybridization was performed for 4 h at 42° C. in 50% formamide, 5× Denhardt's solution (1× Denhardt's being 0.02% polyvinyl pyrrolidone, 0.02 Ficoll, 0.02 bovine serum albumin), 5×SSPE (1×SSPE being 0.18M NaCl, 10 mM NaH2PO4, pH 7.4, 1 mM EDTA), 0.1% SDS, and 100 μg/ml yeast tRNA. The probe was denatured by heating at 100° C. for 5 min, before being added to the hybridization solution at 42° C. overnight. Filters were then washed twice at room temperature in 2×SSC (1×SSC being […], pH 7.0), 0.1% SDS, and twice in 0.1×SSC, 0.1% SDS at 60° C. Positive recombinant plaques were purified by replating twice and grown in liquid culture. Phage DNA were isolated by centrifugation for 90 min at 105,000×g, and DNA was then isolated by phenol extraction and precipitation with isopropanol (Karen et al. 1987; In: Current Protocols in Molecular Biology (F. M. Ausubel, R. Brent, E. Kingston, D. D. Moore, T. G. Seidman, T. A. Smith and K. Struhl, eds), Wiley & Sons, New York, pp. 1.13.1-1.13.6).
# The phage DNA were digested with EcoRI restriction enzymes and the resulting cDNA fragments were inserted into the EcoRI site downstream to the cytomegalovirus (CMV) promoter of the pCMV vector (kindly provided by Dr. Matthew, Cold Spring Harbor, N.Y., USA). Recombinant pCMV plasmids were amplified in Escherichia Coli DH5α competent cells, and were isolated by alkaline lysis procedure (Maniatis et al., In: Molecular cloning: a laboratory manual, Cold Spring Harbor Laboratory., 1982). Sequencing of double-stranded plasmid DNA was performed according to the dideoxy chain termination method (Sanger et al., PNAS 74: 5453-5467, 1977) using a T7 DNA polymerase sequencing kit (Pharmacia LKB Biotechnology). To avoid errors, all sequences were determined by sequencing both strands of the DNA. Oligonucleotide primers were synthesized in our laboratory with a 394 DNA/RNA synthesizer (Applied Biosystem).
# The pCMV vector contain 576 nucleotides of the pCMV promoter (followed by 432 bp of small t intron (fragment 4713-4570) and poly adenylation signal (2825-2536)of SV40, followed by 1989 bp of the Pvu II(628)-AatII (2617) fragment from pUC 19 vector (New England Biolabs) that contains an E. Coli origin of replication and an ampicillin resistance gene for propagation in E. Coli. […]
row,SMILES,IC50
1,"COc1cc2c(cc1C(F)(F)F)C1CCC3(C)C(CCC34CCC(C)(C)C(=O)O4)C1CC2 [EM-1409, 3-Methoxy-2-trifluoromethyl-1,3,5(10)-estratrien-17(R)-spiro-2′-(5′,5′-dimethyl-6′-oxo)tetrahydropyran]",170 ± 70 nM
2,"C[C@]12CCC3c4ccc(O)cc4CCC3C1CC[C@@]21CCCC(=O)O1 (stereo partly drawn) [EM-919, 1,3,5(10)-estratrien-3-ol-17(R)-spiro-2′(6′-oxo)tetrahydropyran]",10 ± 1.4 nM
3,COC(=O)c1cc2c(cc1O)CCC1C2CCC2(C)C1CCC21CCC(C)(C)C(=O)O1 (stereo not shown) [EM-01662],35 ± 5 nM
4,CC1(C)CCC2(CCC3C4CCc5c(cc(Cl)c(OS(C)(=O)=O)c5Cl)C4CCC32C)OC1=O (stereo not shown) [EM-1392-CS],19 nM
5,CC1(C)CC[C@@]2(CCC3C4CCc5cc(F)ccc5C4CC[C@@]32C)OC1=O (stereo partly shown) [EM-1157-CS],4 nM and 10 nM
6,"C[C@]12CCC3c4cc([N+](=O)[O-])c(O)cc4CCC3C1CC[C@@]21CCCC(=O)O1 (stereo partly drawn) [EM-1124, 2-Nitro-1,3,5(10)-estraetriene-3-ol-17(R)-spiro-2′-(6′-oxo)tetrahydropyran]",3 ± 0.2 nM
7,"CC12CCC3c4ccc(O)cc4CCC3C1CCC21CC=CC(=O)O1 [PB-132-140, 3-hydroxy-1,3,5(10)-estratrien-17(R)-spiro-2′-(4′,5′-dihydro-6′-oxo)pyran]",49 ± 5 nM
8,CN(C)C(=O)c1ccc2c(c1)CCC1C2CCC2(C)C1CCC21CCC(C)(C)C(=O)O1 (stereo not shown) [EM-1403],7.2 ± 1.6 nM
9,"CC1(C)CC[C@@]2(CCC3C4CCc5cc(C(=O)O)ccc5C4CC[C@@]32C)OC1=O (stereo partly drawn) [EM-1401, 3-Carboxy-1,3,5(10)-estratrien-17(R)-spiro-2′-(5′,5′-dimethyl-6′-oxo)tetrahydropyran]",4 ± 1.5 nM
10,"CC1CCC2(CCC3C4CCc5cc(O)c([N+](=O)[O-])cc5C4CCC32C)OC1=O [EM-1131, 2-Nitro-1,3,5(10)-estratrien-3-ol-17(R)-spiro-2′-(5′-methyl-6′-oxo)tetrahydropyran]",3 nM

# Same assay, conditions: at 3.10^−6
row,SMILES,Inhibition Type V 17β-HSD % Inh.
1,"COC(=O)CCCC(=O)O[C@]1(C(C)=O)CC[C@H]2[C@@H]3C=C(C)C4=CC(=O)CC[C@]4(C)[C@H]3CC[C@@]21C [EM-1007, 6-Methyl-4,6-pregnadien-17α-ol-3,20-dione 4′-Carbomethoxybutyrate]",86) %

# Same assay, conditions: at 3.10^−7
row,SMILES,Inhibition Type V 17β-HSD % Inh.
1,"COC(=O)CCCC(=O)O[C@]1(C(C)=O)CC[C@H]2[C@@H]3C=C(C)C4=CC(=O)CC[C@]4(C)[C@H]3CC[C@@]21C [EM-1007, 6-Methyl-4,6-pregnadien-17α-ol-3,20-dione 4′-Carbomethoxybutyrate]",(81%

# Same assay, conditions: first of two concentrations, 3 · 10^−7
row,SMILES,Inhibition Type V 17B-HSD % Inh. At 3 · 10^−7 (first value in parentheses)
1,"C[C@]12CCC(=O)C=C1C=C[C@@H]1[C@@H]2CC[C@]2(C)C(=O)C3(CC4CC4C3)C[C@@H]12 (stereo partly shown) [EM-1299, 4,6-Androstadien-3,17-dione-16-spirobicyclo[3′.1′.0′]-hexane]",(73%

# Same assay, conditions: read-out: Inhibition Type V 17B-HSD IC50
row,SMILES,IC50 [nM]
1,CCCC(=O)O[C@]1(C)C(=O)CCC2C3C=C(C)C4=CC(=O)CC[C@]4(C)C3CC[C@@]21C (stereo partly shown) [EM-1078],3.8 ± 0.6
2,CC12C=CC(=O)C=C1C=CC1C2CCC2(C)C(=O)C3(CCCCC3)CC12 (stereo not shown) [CS-204],94
3,CC(=O)O[C@]1(C)C(=O)CCC2C3C=C(C)C4=CC(=O)C=C[C@]4(C)C3CC[C@@]21C (stereo partly shown) [CS-237],9 ± 1

# Same assay, conditions: read-out: Inhibition Type V 17β-HSD IC50
row,SMILES,IC50 [nM]
1,COc1ccc(CC(=O)O[C@]2(C(C)=O)CCC3C4C=C(C)C5=CC(=O)C=C[C@]5(C)C4CC[C@@]32C)cc1 (stereo partly shown) [EM-1291],7 ± 1
2,CC(=O)[C@@]1(OC(=O)CCCCF)CCC2C3C=C(C)C4=CC(=O)CC[C@]4(C)C3CC[C@@]21C (stereo partly shown) [EM-1195-CS],4 ± 0.5

# Same assay, conditions: second of two concentrations, 3 · 10^−7
row,SMILES,Inhibition Type V 17B-HSD % Inh. At 3 · 10^−7 (second value in parentheses)
1,"C[C@]12CCC(=O)C=C1C=C[C@@H]1[C@@H]2CC[C@]2(C)C(=O)C3(CC4CC4C3)C[C@@H]12 (stereo partly shown) [EM-1299, 4,6-Androstadien-3,17-dione-16-spirobicyclo[3′.1′.0′]-hexane]",99) %
